Results: paper PMC12469358, “Synthesis of novel phenoxyacetohydrazide compounds and evaluation therapeutic potential exhibit as anti-inflammatory and anti-angiogenic” (PLOS One, 2025)
In brackets after ≈: the same amount, converted by molar mass. Entries after “also recorded” stand apart in the source; their conditions may differ. Like-named read-outs stand apart in the source and are kept apart here. Blank lines part the entries; values can stand above or below the compound they belong to.

What was measured:
[1] = system: human red blood cell (HRBC) membrane; test: Human red blood cell (HRBC) membrane stabilization assay; format: cell-based; conditions: for IC50: Homo sapiens, Erythrocyte
Description: The human red blood cell (HRBC) membrane stabilization method was employed to evaluate the anti-inflammatory activity of the compounds, as previously described. For test the in vitro anti-inflammatory activity of synthesized compounds (6e-h), blood samples were collected from healthy volunteers who had not taken NSAIDs for 14 days. The blood was mixed with an equal volume of sterilized Alsever’s solution, centrifuged at 3000 rpm, and the packed cells were washed with isotonic saline (0.9% w/v NaCl). A 10% cell suspension was then prepared using isotonic saline. The test compounds were dissolved in DMSO to prepare solutions at concentrations of 50, 100, 150, 200, and 250 μg/ml. For each concentration, a mixture containing 1 ml of phosphate buffer, 2 ml of hypotonic saline, and 0.5 ml of the HRBC suspension was prepared. The samples were incubated at 37°C for 30 minutes and centrifuged at 3000 rpm for 20 minutes. The hemoglobin content in the supernatant was determined spectrophotometrically at 560 nm. Indomethacin at the same concentrations (50–250 μg/ml) was used as the reference standard, and a control sample was prepared without the test compounds. The percentage hemolysis was calculated by considering the hemolysis in the control group as 100%. The percentage of HRBC membrane stabilization or protection was determined using the following formula:
percent protection=100−((OD of drug treated sample/OD of control) ×100).

[2] = system: alkali burn-induced corneal neovascularization (CNV); test: Alkali burn-induced corneal neovascularization; format: in vivo; conditions: alkali-burnt cornea
Description: Corneal neovascularization (CNV) was induced through alkali injury following a standard protocol with minor modifications. Swiss albino rats were first examined to ensure the absence of ophthalmic diseases before the alkali burn procedure. The animals were divided into three groups, each comprising six animals (n = 6 per group):
• Group I: Normal, treated with phosphate-buffered saline (PBS). • Group II: Control group, treated with 1 µg of recombinant VEGF (rVEGF). • Group III: Treated group, receiving rVEGF165 ([…]) and compound 6e (5 µg/ml).
An alkali burn was induced in the right eye of animals in Groups II and III after administering general anesthesia via intraperitoneal injection of ketamine (1 ml/kg) and chlorpromazine (1 ml/kg). A 3-mm diameter piece of Whatman filter paper soaked in […] of 1 mol/L NaOH was applied to the center of the cornea for 30 seconds, followed by irrigation of the treated cornea with 60 ml of normal saline.
Group II animals were subsequently treated with 1 µg of rVEGF applied to the right eye. The extent of CNV was quantified through photographic documentation 48 hours after the alkali burn and rVEGF treatment. […] The inhibitory effect of compound 6e on neovascularization was evaluated through photographic documentation 24 hours after treatment with compound 6e.

[3] = system: carrageenan-induced paw edema; test: Carrageenan-induced paw edema; format: in vivo; conditions: rat, 6e 25 mg/kg, 5 h after carrageenan injection
Text: Female Swiss albino rats were selected for the study to evaluate the anti-inflammatory effects of compound 6e against carrageenan-induced paw edema. The animals were divided randomly into four groups, with each group consisting of six experimental animals (n = 6): • Group 1: Normal animals (untreated). • Group 2: Control group (saline-treated). • Group 3: Positive control group (indomethacin-treated). • Group 4: Animals treated with compound 6e. Prior to the experiment, animals in Group 2 were administered saline (5 mL/kg), animals in Group 3 received the positive control indomethacin (10 mg/kg), and animals in Group 4 were treated with compound 6e (25 mg/kg). All animals were left undisturbed in their respective cages for 2 hours.

[4] = system: rVEGF165-induced angiogenesis in CAM explants; test: Ex vivo CAM assay; format: in vivo, chick
[5] = system: rVEGF165-induced angiogenesis in chick chorioallantoic membrane (CAM); test: In vivo chorioallantoic membrane (CAM) assay; conditions: for H&E staining: neovascular structures and inflammatory infiltration: Fig 23 legend, H&E staining of in vivo CAM
Description: The in vivo CAM assay was performed according to the standard protocol. All the eggs were wiped with 75% alcohol prior to incubation. Then the fertilized eggs were incubated at 37°C with 60% relative humidity. On the 11th day of incubation, all the eggs divided into three treatment groups contain minimum 6 eggs as mentioned below.
• Group I – Normal [PBS (Phosphate buffer saline) (10 mM Sodium phosphate mono basic+ 1.8 mM Sodium phosphate dibasic+140 mM sodium chloride, pH 7.4) alone] • Group II – Control [1µg of rVEGF165 alone] • Group III – 5 µg of 6e + 1 µg of rVEGF165.
A rectangular window was made in the egg shell and Whatman filter paper (3 mm diameter) containing with or without compound 6e (5 µg) was placed on the CAM and the window were sealed using sterile vegetable wrap. Windows were opened after 48h, i.e., on 13th day of incubation, observed by two independent observers and measured for change in the Micro Vessel Density (MVD) in the area beneath the cover slip and photographed using Sony steady shot DSC-W610 camera.

[6] = system: tissue myeloperoxidase (MPO) activity in carrageenan-treated paws; test: Tissue myeloperoxidase (MPO) activity assay; format: in vivo; conditions: rat, 6e 25 mg/kg, 4 hours after carrageenan
Description: Rats were treated either with or without positive control (indomethacin at 10 mg/kg body weight) or compound 6e (25 mg/kg body weight) 2 hours prior to the injection of carrageenan into the right hind paw. The activity of tissue myeloperoxidase (MPO) was assessed 4 hours post-carrageenan injection. Tissue samples were collected and placed in 0.75 ml of 80 mM phosphate-buffered saline (PBS, pH 5.4) containing 0.5% hexadecyltrimethylammonium bromide (HTAB). The samples were homogenized for 45 seconds at 0°C using a homogenizer. The homogenate was transferred into microfuge tubes, and the homogenizer vessel was rinsed with an additional 0.75 ml of HTAB in PBS. The wash was combined with the homogenate to yield a total sample volume of 1.5 ml, which was then centrifuged at 12,000 × g at 4°C for 15 minutes. For the MPO assay, 30 μl of the resulting supernatant was added to 96-well microtiter plates. To each well, 200 μl of a reaction mixture was added, consisting of 100 μl of 80 mM PBS (pH 5.4), 85 μl of 0.22 M PBS (pH 5.4), and 15 μl of 0.017% hydrogen peroxide. […] Enzyme activity was determined spectrophotometrically by measuring absorbance at 630 nm using a plate reader. Results were expressed as MPO activity per milligram of tissue (MOD/mg tissue). […] All samples were measured in six times (n = 6 technical replicates) for statistical accuracy.

[7] = Table 6 series 6a-h, read-out: HRBC membrane stabilization “IC50” Value
[8] = Table 7, 50-250 µg concentration series, comparison with indomethacin, read-out: “IC50”
[9] = Table 7, 50-250 µg concentration series, comparison with indomethacin

SMILES: Cc1ccc(OCC(=O)NNC(=O)C2CN(Cc3ccccc3)CCO2)c(C)c1 (centres unmarked) [6d, 4-Benzyl-N’-(2-(2,4-dimethylphenoxy)acetyl)morpholine-2-carbohydrazide]
IC50 [1, 7]: 199 µg/mL (≈ 501 µM)

SMILES: Cc1ccccc1OCC(=O)NNC(=O)C1CN(Cc2ccccc2)CCO1 (centres unmarked) [6c, 4-Benzyl-N’-(2-(o-tolyloxy)acetyl)morpholine-2-carbohydrazide]
IC50 [1, 7]: 289 µg/mL (≈ 754 µM)

SMILES: O=C(CCCOc1cccc([N+](=O)[O-])c1)NNC(=O)C1CN(Cc2ccccc2)CCO1 (centres unmarked) [6h, 4-Benzyl-N’-(4-(3-nitrophenoxy)butanoyl)morpholine-2-carbohydrazide]
IC50 [1, 7]: 255 µg/mL (≈ 576 µM)

SMILES: CC(C)c1ccc(OCC(=O)NNC(=O)C2CN(Cc3ccccc3)CCO2)c(C(C)C)c1 (centres unmarked) [6f, 4-Benzyl-N’-(2-(2,4-diisopropylphenoxy)acetyl)morpholine-2-carbohydrazide]
IC50 [1, 7]: 301 µg/mL (≈ 664 µM)

SMILES: O=C(COc1ccc(Cl)cc1)NNC(=O)C1CN(Cc2ccccc2)CCO1 (centres unmarked) [6a, 4-Benzyl-N’-(2-(4-chlorophenoxy)acetyl)morpholine-2-carbohydrazide]
IC50 [1, 7]: 311 µg/mL (≈ 770 µM)

SMILES: COc1ccc2c(c1)c(CC(=O)O)c(C)n2C(=O)c1ccc(Cl)cc1 [Indomethacin, reference compound]
% Inhibition ([1]; 50 µg): 33.10%
% Inhibition ([1]; 100 µg): 46.11%
% Inhibition ([1]; 150 µg): 53.99%
% Inhibition ([1]; 200 µg): 64.98%
% Inhibition ([1]; 250 µg): 76.94%
IC50 [1, 8]: 122 µg/mL (≈ 340 µM)
“IC50” [1, 9]: 122.01 µg/mL
H&E staining: neovascular structures and inflammatory infiltration [5]: Moderate reduction in neovascular structures

More lines, main results first:

IC50 [1, 7]: 155 µg/mL (≈ 373 µM)
IC50 [1, 8]: 164 µg/mL (≈ 395 µM)
“IC50” [1, 9]: 165.988 µg/mL
SMILES: O=C(CCCOc1ccc(F)cc1)NNC(=O)C1CN(Cc2ccccc2)CCO1 (centres unmarked) [6e, 4-Benzyl-N’-(4-(4-fluorophenoxy)butanoyl)morpholine-2-carbohydrazide]
total vessel length in the rat cornea [2]: diminution in the total vessel length; also recorded: reduction in total vessel length
corneal neovascularization (CNV) ([2]; rat, 6e 5 µg with rVEGF165 10 µg): significant decrease in CNV
% Inhibition ([1]; 50 µg): 28.88%
% Inhibition ([1]; 100 µg): 34.13%
% Inhibition ([1]; 150 µg): 42.02%
% Inhibition ([1]; 200 µg): 59.99%
% Inhibition ([1]; 250 µg): 67.86%
paw swelling ratio (percent increase of paw volume) [3]: statistically significant reduction in the paw swelling ratio; also recorded: significantly inhibited the ratio of paw swelling
VEGF-induced angiogenic response, ex vivo CAM ([4]; co-administration with rVEGF165): Marked suppression of new blood vessel formation; also recorded: effectively inhibited this VEGF-induced angiogenic response in a dose-dependent manner
Total vessel length of ex-vivo CAM ([4]; rVEGF165-induced increase, n = 6): significantly attenuated
rVEGF165-induced angiogenic response / neovascularization, in vivo CAM ([5]; 5 µg 6e + 1 µg rVEGF165, 48 h): inhibited this rVEGF165-induced angiogenic response in a dose-dependent manner; also recorded: Marked suppression of neovascularization
H&E staining: neovascular structures and inflammatory infiltration [5]: minimal inflammatory infiltration and absence of neovessel
Total vessel length of in vivo CAM ([5]; versus control, n = 6): A significant reduction in vessel length
MPO activity in carrageenan-treated paws [6]: markedly prevented the elevation of MPO activity

IC50 [1, 7]: 279 µg/mL (≈ 586 µM)
SMILES: O=C(CCCOc1ccc(Br)cc1)NNC(=O)C1CN(Cc2ccccc2)CCO1 (centres unmarked) [6g, 4-Benzyl-N’-(4-(4-bromophenoxy)butanoyl)morpholine-2-carbohydrazide]

IC50 [1, 7]: 222 µg/mL (≈ 495 µM)
SMILES: O=C(COc1ccc(Br)cc1)NNC(=O)C1CN(Cc2ccccc2)CCO1 (centres unmarked) [6b, 4-Benzyl-N’-(2-(4-bromophenoxy)acetyl)morpholine-2-carbohydrazide]
